Test results published in publication PMC2882332, “Species Used for Drug Testing Reveal Different Inhibition Susceptibility for 17beta-Hydroxysteroid Dehydrogenase Type 1” (PLoS ONE, 2010).
pIC50: −log10 of the molar value. Entries after “also recorded” stand apart in the source; their conditions may differ.

What was measured:
human 17β-HSD 1 = molecular target: T1, human 17β-HSD 1 (Homo sapiens, UniProt P14061); test: In vitro enzymatic activity, recombinant human 17β-HSD 1 (estrone reduction); format: biochemical; settings: for specificity for human 17β-HSD 1 over human 17β-HSD 2, 4, 5 and 7 (in words) / inhibition of the human 17β-HSD 1 reductive activity (in words): 2 µM; for specificity for human 17β-HSD 1 over human 17β-HSD 2, 4, 5 and 7 (in words): Figure 2, Table 3; for inhibition at 2 µM: human 17β-HSD 1, 2 µM compound, 15 nM 3H-estrone, NADPH, pH 6.6, read-out: Observed % inhibition; for inhibition of the human 17β-HSD 1 reductive activity (in words): Figure 2; for pIC50: Human 17β-HSD 1, 0.005 µM to 5 µM inhibitor
T1 construct: Full length cDNAs of several 17β-HSDs type 1 originating from different species were cloned; made in house; host or cells: E.coli BL21 DE3 Codon Plus RP
T1 sequence (P14061 1-328): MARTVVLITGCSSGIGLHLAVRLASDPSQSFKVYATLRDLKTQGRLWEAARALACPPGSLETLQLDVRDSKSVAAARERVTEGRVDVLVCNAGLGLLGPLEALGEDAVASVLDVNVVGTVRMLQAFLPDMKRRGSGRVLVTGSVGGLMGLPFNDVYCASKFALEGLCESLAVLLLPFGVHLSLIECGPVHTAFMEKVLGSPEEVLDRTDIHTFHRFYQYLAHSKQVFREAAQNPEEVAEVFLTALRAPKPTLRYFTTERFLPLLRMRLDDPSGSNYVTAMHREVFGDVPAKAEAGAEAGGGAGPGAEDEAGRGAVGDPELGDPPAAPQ
Text: (§1) Full length cDNAs of several 17β-HSDs type 1 originating from different species were cloned either into the pQE30 vector (human 17β-HSD 1, coding for acc. no. NP_000404) for expression as His-Tag protein or into a modified pGex-2T vector [63] (mouse 17β-HSD 1, acc. no. NP_034605; rat 17β-HSD 1, acc. no. NP_036983; marmoset 17β-HSD 1, acc. no. AAG01115; porcine 17β-HSD 1, acc. no. NP_001121944) for expression as GST-fusion proteins. The marmoset 17β-HSD 1 enzyme sequence was updated by the missing N-terminal part (AF272013) and the new porcine sequence was submitted to GenBank (NP_001121944). Human 17β-HSDs 2, 4, 5 (AKR1C3, the latter kindly provided by Dr. T. Penning) and 7 were all cloned into the modified pGEX-2T vector. For 17β-HSD 4 only the SDR-domain converting the steroids was subcloned. Plasmids were transformed into E.coli BL21 DE3 Codon Plus RP (Stratagene) and enzyme expression was induced by 0.5 mM IPTG. After 4h incubation at 37°C with continuous shaking bacteria were pelleted by centrifugation at 10.000×g. Pellets were stored until use at −20°C.
(§2) The bacteria containing recombinant enzymes were resuspended in PBS and enzymatic assays were performed in 100 mM sodium phosphate buffer at pH 6.6 for the reductive reaction and at pH 7.7 for the oxidative reaction. […] All substrates were purchased from NEN/Perkin Elmer. The cofactors NADPH (Sigma; for reductive reactions) and NAD^+ (Serva, for oxidative reactions) were used at final concentrations of 0.5 mg/ml. […] The incubation at 37°C was stopped with 0.21 M ascorbic acid in methanol∶acetic acid 99∶1 (v∶v) after the time needed to convert approximately 30% of the substrate in a control assay with 1% DMSO, without inhibitor candidates. […] The solvent used was acetonitrile∶water (43∶57, v∶v) at a flow rate of 1 ml/min. Radioactivity was detected by online-scintillation counting (Berthold LB506D) after mixing with ReadyFlowIII (Beckman). Conversion was calculated from integration of substrate and product peaks. […] All assays were run in duplicates of two independent experiments and mean values are reported. The IC50 values were determined by the One Ligand Binding model of SigmaPlot kinetics module.

mouse 17β-HSD 1 = molecular target: T2, mouse 17β-HSD 1 (Mus musculus, UniProt P51656); test: In vitro enzymatic activity, recombinant mouse 17β-HSD 1; format: biochemical; settings: 2 µM compound, 15 nM 3H-estrone, read-out: Observed % inhibition
T2 construct: Full length cDNAs of several 17β-HSDs type 1 originating from different species were cloned; made in house; host or cells: E.coli BL21 DE3 Codon Plus RP
T2 sequence (P51656 1-344): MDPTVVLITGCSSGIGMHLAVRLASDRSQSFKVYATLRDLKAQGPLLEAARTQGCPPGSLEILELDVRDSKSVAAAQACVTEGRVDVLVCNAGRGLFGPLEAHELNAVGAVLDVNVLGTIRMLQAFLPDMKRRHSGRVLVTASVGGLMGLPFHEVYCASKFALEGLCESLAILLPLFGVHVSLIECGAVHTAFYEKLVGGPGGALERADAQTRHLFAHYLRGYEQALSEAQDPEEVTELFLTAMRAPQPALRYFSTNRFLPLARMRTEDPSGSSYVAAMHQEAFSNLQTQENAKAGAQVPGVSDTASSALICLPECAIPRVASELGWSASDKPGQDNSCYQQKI
Text: as §1, §2

human 17β-HSD 7 = molecular target: T3, human 17β-HSD 7 (Homo sapiens, UniProt P56937); test: In vitro enzymatic activity, recombinant human 17β-HSD 7 (estrone reduction); format: biochemical; settings: 2 µM compound, 15 nM 3H-estrone, NADPH, pH 6.6, read-out: Observed % inhibition
T3 construct: made in house; host or cells: E.coli BL21 DE3 Codon Plus RP
T3 sequence (P56937 1-341): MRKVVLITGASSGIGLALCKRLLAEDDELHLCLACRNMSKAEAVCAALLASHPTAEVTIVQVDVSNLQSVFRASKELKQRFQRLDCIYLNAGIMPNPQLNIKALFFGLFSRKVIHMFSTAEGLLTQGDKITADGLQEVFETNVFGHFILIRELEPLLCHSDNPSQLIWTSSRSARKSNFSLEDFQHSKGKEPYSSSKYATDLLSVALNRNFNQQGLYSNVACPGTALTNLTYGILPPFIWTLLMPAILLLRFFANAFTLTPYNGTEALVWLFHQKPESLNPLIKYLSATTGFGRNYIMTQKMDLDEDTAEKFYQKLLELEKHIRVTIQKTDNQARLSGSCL
Text: as §1, §2

human 17β-HSD 5 (AKR1C3) = molecular target: T4, human 17β-HSD 5 (AKR1C3) (Homo sapiens, UniProt P42330); test: In vitro enzymatic activity, recombinant human 17β-HSD 5 (androstenedione reduction); format: biochemical; settings: 2 µM compound, 21 nM 3H-androstenedione, NADPH, pH 6.6
T4 construct: made in house; host or cells: E.coli BL21 DE3 Codon Plus RP
T4 sequence (P42330 1-323): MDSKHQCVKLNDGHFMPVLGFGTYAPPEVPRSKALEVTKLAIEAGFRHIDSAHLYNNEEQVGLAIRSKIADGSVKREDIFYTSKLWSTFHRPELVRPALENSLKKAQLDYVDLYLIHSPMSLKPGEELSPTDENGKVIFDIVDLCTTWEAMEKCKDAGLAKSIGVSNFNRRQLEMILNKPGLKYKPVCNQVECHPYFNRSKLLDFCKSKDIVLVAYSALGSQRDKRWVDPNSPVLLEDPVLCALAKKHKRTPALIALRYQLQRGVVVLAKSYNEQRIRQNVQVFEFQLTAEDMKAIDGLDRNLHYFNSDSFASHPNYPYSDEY
Text: as §1, §2

[1] = tested on: 17β-HSD 1 orthologs of five species; test: In vitro enzymatic activity, 17β-HSD 1 orthologs of five species taken together; format: biochemical, human, marmoset, mouse, pig, rat; settings: average over the 17β-HSD 1 orthologs of the species; 2 µM compound

SMILES	specificity for human 17β-HSD 1 over human 17β-HSD 2, 4, 5 and 7 (in words) (human 17β-HSD 1)	inhibition at 2 µM (human 17β-HSD 1)	inhibition at 2 µM (mouse 17β-HSD 1)	inhibition at 2 µM (human 17β-HSD 7)	Observed % inhibition (human 17β-HSD 5 (AKR1C3))	Observed % inhibition, average [1]	inhibition of the human 17β-HSD 1 reductive activity (in words) (human 17β-HSD 1)	pIC50 (human 17β-HSD 1)
C[C@]12CC[C@@H]3c4ccc(O)cc4CC[C@H]3[C@@H]1[C@@H](CNC(=O)c1ccc(F)cc1)CC2=O [Compound 1]	most specific inhibitors	63.6%	27%	-3.6%	21.6%	42.1%		
C[C@]12CC[C@@H]3c4ccc(O)cc4CC[C@H]3[C@@H]1[C@@H](CCCC(=O)N1CCOCC1)CC2=O [Compound 2]	very low inhibition of the other human 17β-HSDs; also recorded: most specific inhibitors	94.7%	-1.5%	-7.1%	33.9%	52.2%	high inhibition	7.06
Cc1cnc(NC(=O)CC[C@@H]2CC(=O)[C@@]3(C)CC[C@@H]4c5ccc(O)cc5CC[C@H]4[C@H]23)s1 [Compound 3]	very low inhibition of the other human 17β-HSDs; also recorded: most specific inhibitors	97.9%	27%	-9%	29.3%	66.7%	high inhibition	8.89
COc1ccc(-c2cn(CCC[C@H]3CC(=O)[C@@]4(C)CC[C@@H]5c6ccc(O)cc6CC[C@H]5[C@H]34)nn2)cc1 [Compound 4]		95.8%	18.5%	-5.8%	93.5%	57.0%		
C[C@]12CC[C@@H]3c4ccc(O)cc4CC[C@H]3[C@@H]1C[C@H](CC(=O)NCc1cccnc1)C2=O [Compound 5, reference compound]		100%	3.2%	0%	50.6%	48.4%		
